Laboratory results published in ChEMBL document CHEMBL5512632, “Unlocking the potential of 1,4-naphthoquinones: A comprehensive review of their anticancer properties” (Eur J Med Chem, 2024).
Values belong to the compound of their own block, whether it stands above or below them.

How the values were obtained:
THP-1 = test: Antiproliferative activity against human THP-1 cells assessed as inhibition of cell growth; type: functional, cell-based
K562 = test: Antiproliferative activity against human K562 cells assessed as inhibition of cell growth; type: functional, cell-based
MV4-11 = test: Cytotoxicity against human MV4-11 cells; type: functional, cell-based
NCI-H460 = test: Antiproliferative activity against human NCI-H460 cells assessed as inhibition of cell growth incubated for 24 hrs by MTT assay; type: functional, cell-based; conditions: NCI-H460, 24 h
MDA-MB-231 = test: Antiproliferative activity against human MDA-MB-231 cells assessed as inhibition of cell growth incubated for 24 hrs by MTT assay; type: functional, cell-based; conditions: MDA-MB-231, 24 h
A2780 = test: Antiproliferative activity against human A2780 cells assessed as inhibition of cell growth incubated for 24 hrs by MTT assay; type: functional, cell-based; conditions: A2780, 24 h
MCF7 [1] = test: Antiproliferative activity against human MCF7 cells assessed as inhibition of cell growth incubated for 24 hrs by MTT assay; type: functional, cell-based; conditions: MCF7, 24 h
HCT-15 [2] = test: Antiproliferative activity against human HCT-15 cells assessed as inhibition of cell growth incubated for 24 hrs by MTT assay; type: functional, cell-based; conditions: HCT-15, 24 h
PC-3 = test: Antiproliferative activity against human PC-3 cells assessed as inhibition of cell growth incubated for 72 hrs by MTT assay; type: functional, cell-based; conditions: PC-3, 72 h
LNCaP = test: Antiproliferative activity against human LNCaP cells assessed as inhibition of cell growth incubated for 72 hrs by MTT assay; type: functional, cell-based
SGC-7901 = test: Antiproliferative activity against human SGC-7901 cells assessed as inhibition of cell growth incubated for 48 hrs by MTT assay; type: functional, cell-based; conditions: SGC-7901, 48 h
HepG2 = test: Antiproliferative activity against human HepG2 cells assessed as inhibition of cell growth incubated for 48 hrs by MTT assay; type: functional, cell-based; conditions: HepG2, 48 h
MCF7 [3] = test: Antiproliferative activity against human MCF7 cells; type: functional, cell-based
NCI-H187 = test: Antiproliferative activity against human NCI-H187 cells; type: functional, cell-based
HCT-15 [4] = test: Cytotoxicity against human HCT-15 cells incubated for 48 hrs by MTT assay; type: functional, cell-based; conditions: HCT-15, 48 h
HCT-116 = test: Cytotoxicity against human HCT-116 cells incubated for 48 hrs by MTT assay; type: functional, cell-based; conditions: HCT-116, 48 h
AGS [5] = test: Antiproliferative activity against human AGS cells assessed as inhibition of cell growth incubated for 3 days by MTT assay; type: functional, cell-based; conditions: 72 h
HeLa = test: Cytotoxicity against human HeLa cells assessed as inhibition of cell growth incubated for 48 hrs by MTT assay; type: functional, cell-based
SK-MEL-5 = test: Antiproliferative activity against human SK-MEL-5 cells assessed as inhibition of cell growth incubated for 96 hrs by SRB assay; type: functional, cell-based; conditions: SK-MEL-5, 96 h
T-24 = test: Cytotoxicity against human T24 cells assessed as reduction in cell growth incubated for 48 hrs by MTT assay; type: functional, cell-based; conditions: T-24, 48 h
DU-145 = test: Cytotoxicity against human DU-145 cells assessed as reduction in cell growth incubated for 48 hrs by MTT assay; type: functional, cell-based; conditions: DU-145, 48 h
MCF7 [6] = test: Cytotoxicity against human MCF7 cells assessed as reduction in cell growth incubated for 48 hrs by MTT assay; type: functional, cell-based; conditions: MCF7, 48 h
HT-29 = test: Antiproliferative activity against human HT-29 cells assessed as inhibition of cell growth incubated for 48 hrs by MTT assay; type: functional, cell-based; conditions: HT-29, 48 h
AGS [7] = test: Antiproliferative activity against human AGS cells assessed as inhibition of cell growth incubated for 24 hrs by MTT reagent based microplate reader assay; type: functional
MKN-28 = test: Antiproliferative activity against human MKN-28 cells assessed as inhibition of cell growth incubated for 24 hrs by MTT reagent based microplate reader assay; type: functional; conditions: MKN-28, 24 h
MKN-45 = test: Antiproliferative activity against human MKN-45 cells assessed as inhibition of cell growth incubated for 24 hrs by MTT reagent based microplate reader assay; type: functional; conditions: MKN-45, 24 h
[8] = Antiproliferative activity against human SNU-216 cells assessed as inhibition of cell growth incubated for 24 hrs by MTT reagent based microplate reader assay; type: functional; conditions: SNU-216, 24 h
[9] = Antiproliferative activity against human SNU-484 cells assessed as inhibition of cell growth incubated for 24 hrs by MTT reagent based microplate reader assay; type: functional; conditions: SNU-484, 24 h
NCI-N87 = test: Antiproliferative activity against human NCI-N87 cells assessed as inhibition of cell growth incubated for 24 hrs by MTT reagent based microplate reader assay; type: functional; conditions: NCI-N87, 24 h
[10] = Antiproliferative activity against human YCC-1 cells assessed as inhibition of cell growth incubated for 24 hrs by MTT reagent based microplate reader assay; type: functional; conditions: YCC-1, 24 h
[11] = Antiproliferative activity against human YCC-6 cells assessed as inhibition of cell growth incubated for 24 hrs by MTT reagent based microplate reader assay; type: functional; conditions: YCC-6, 24 h
[12] = Antiproliferative activity against human YCC-16 cells assessed as inhibition of cell growth incubated for 24 hrs by MTT reagent based microplate reader assay; type: functional; conditions: YCC-16, 24 h

IC50 (THP-1): 23 µM
IC50 (K562): 78 µM
Structure (SMILES): CCNC1=CC(=O)c2ccccc2C1=O

IC50 (NCI-H460): 4.24 µM
IC50 (MDA-MB-231): 16 µM
IC50 (A2780): 3.69 µM
Structure (SMILES): O=C1C=C(SCCO)C(=O)c2ccccc21

IC50 (MCF7 [1]): 20.9 µM
IC50 (HCT-15 [2]): 28.2 µM
Structure (SMILES): O=C(NNC1=CC(=O)c2ccccc2C1=O)c1ccncc1

IC50 (PC-3): 1260 nM
IC50 (LNCaP): 100 nM
Structure (SMILES): O=C1c2ccccc2C(=O)c2oc(-c3ccccc3Cl)nc21

IC50 (MCF7 [3]): 3.84 µM
IC50 (NCI-H187): 2240 nM
Structure (SMILES): O=C(/C=C/C=C/c1ccc2c(c1)OCO2)OC1=CC(=O)c2ccccc2C1=O

IC50 (HT-29): 1730 nM
Structure (SMILES): O=C(c1cccs1)c1cc2c(s1)C(=O)c1ccccc1C2=O

Continued, compound first:

Structure (SMILES): O=C(Cc1ccc(C(=O)NO)cc1)NC1=CC(=O)c2ccccc2C1=O
EC50 (MV4-11): 367 nM

Structure (SMILES): COc1ccc(C2C3=C(Nc4nc(SC)nc(N)c42)C(=O)c2ccccc2C3=O)cc1Br (configuration not stated)
IC50 (SGC-7901): 4.39 µM
IC50 (HepG2): 5.91 µM

Structure (SMILES): C=CC(C)(C)C(SC(=O)c1cc(OC)c(OC)c(OC)c1)c1cc(OC)c2c(c1OC)/C(=N\O)C=C/C2=N\O (configuration not stated)
IC50 (HCT-15 [4]): 3.67 µM
IC50 (HCT-116): 4.95 µM

Structure (SMILES): Cn1c(=O)c2c3c(c(-c4cccs4)nc2n(C)c1=O)C(=O)c1ccccc1C3=O
IC50 (AGS [5]): 3.3 µM

Structure (SMILES): CC(C)(C)SC1=C(Cl)C(=O)c2ccccc2C1=O
IC50 (HeLa): 10.2 µM

Structure (SMILES): C=CC/N=c1\sc2c(n1NC(=O)c1cc3ccc1CCc1ccc(cc1)CC3)C(=O)c1ccccc1C2=O
IC50 (SK-MEL-5): 810 nM

Structure (SMILES): COc1cc(NC2=C(C(=O)c3ccccc3)C(=O)c3ccccc3C2=O)cc(OC)c1OC
IC50 (T-24): 11.6 µM
IC50 (DU-145): 8.12 µM
IC50 (MCF7 [6]): 7.53 µM

Structure (SMILES): COc1ccc(SC2=CC(=O)c3c(OC)ccc(OC)c3C2=O)cc1
IC50 (AGS [7]): 320 nM
IC50 (MKN-28): 560 nM
IC50 (MKN-45): 630 nM
IC50 [8]: 1220 nM
IC50 [9]: 640 nM
IC50 (NCI-N87): 730 nM
IC50 [10]: 710 nM
IC50 [11]: 420 nM
IC50 [12]: 1350 nM
